Earlier results in PubChem BioAssay AID1259409 (Chemical Carcinogenesis Research Information System (CCRIS), 2018).

Tested on: rodent chemically induced tumor inhibition, incidence and multiplicity
Test: CCRIS tumor inhibitor studies
Details: Route [Inhibitor]: ORAL, Promoter: NONE USED

## CC1=C(/C=C/C(C)=C/C=C/C(C)=C/C(=O)NCCO)C(C)(C)CCC1
Carcinogen: N-NITROSOBIS(2-OXYPROPYL)AMINE, 60599-38-4, Dose [Inhibitor]: 0.05, 0.1 OR 0.2 MILLIMOLAR/KG DIET FOR 32 WK STARTING 1 WK AFTER THE CARCINOGEN DOSE (STUDY DURATION: 33 WK), Species: HAMSTER, Strain/Sex: SYRIAN/FEMALE, Target Tissue: Type of Lesion: COMMON DUCT: ADENOMA, Dose [Carcinogen]: 40 MG/KG ONCE
  tumour outcome (control, treated, inhibition, significance): 4/10 (40%), 19/29 (66%), -65%, not significant
Carcinogen: N-NITROSOBIS(2-OXYPROPYL)AMINE, 60599-38-4, Dose [Inhibitor]: 0.05, 0.1 OR 0.2 MILLIMOLAR/KG DIET FOR 32 WK STARTING 1 WK AFTER THE CARCINOGEN DOSE (STUDY DURATION: 33 WK), Species: HAMSTER, Strain/Sex: SYRIAN/FEMALE, Target Tissue: Type of Lesion: GALL BLADDER: ADENOMA, Dose [Carcinogen]: 40 MG/KG ONCE
  tumour outcome (control, treated, inhibition, significance): 6/10 (60%), 17/29 (59%), 2%, not significant
Carcinogen: N-NITROSOBIS(2-OXYPROPYL)AMINE, 60599-38-4, Dose [Inhibitor]: 0.05, 0.1 OR 0.2 MILLIMOLAR/KG DIET FOR 32 WK STARTING 1 WK AFTER THE CARCINOGEN DOSE (STUDY DURATION: 33 WK), Species: HAMSTER, Strain/Sex: SYRIAN/FEMALE, Target Tissue: Type of Lesion: LUNG: ADENOMA, Dose [Carcinogen]: 40 MG/KG ONCE
  tumour outcome (control, treated, inhibition, significance): 3/10 (30%), 4/29 (14%), 53%, p<0.025
Carcinogen: N-NITROSOBIS(2-OXYPROPYL)AMINE, 60599-38-4, Dose [Inhibitor]: 0.05, 0.1 OR 0.2 MILLIMOLAR/KG DIET FOR 32 WK STARTING 1 WK AFTER THE CARCINOGEN DOSE (STUDY DURATION: 33 WK), Species: HAMSTER, Strain/Sex: SYRIAN/FEMALE, Target Tissue: Type of Lesion: PANCREAS: ADENOMA, Dose [Carcinogen]: 40 MG/KG ONCE
  tumour outcome (control, treated, inhibition, significance): 10/10 (100%), 29/29 (100%), 0%, not significant
Carcinogen: N-NITROSOBIS(2-OXYPROPYL)AMINE, 60599-38-4, Dose [Inhibitor]: 0.05, 0.1 OR 0.2 MILLIMOLAR/KG DIET FOR 32 WK STARTING 1 WK AFTER THE CARCINOGEN DOSE (STUDY DURATION: 33 WK), Species: HAMSTER, Strain/Sex: SYRIAN/FEMALE, Target Tissue: Type of Lesion: PANCREAS: CARCINOMA, Dose [Carcinogen]: 40 MG/KG ONCE
  tumour outcome (control, treated, inhibition, significance): 4/10 (40%), 15/29 (52%), -30%, not significant
Carcinogen: N-NITROSOBIS(2-OXYPROPYL)AMINE, 60599-38-4, Dose [Inhibitor]: 0.05, 0.1 OR 0.2 MILLIMOLAR/KG DIET FOR 32 WK STARTING 1 WK AFTER THE CARCINOGEN DOSE (STUDY DURATION: 33 WK), Species: HAMSTER, Strain/Sex: SYRIAN/MALE, Target Tissue: Type of Lesion: COMMON DUCT: ADENOMA, Dose [Carcinogen]: 40 MG/KG ONCE
  tumour outcome (control, treated, inhibition, significance): 4/12 (33%), 23/29 (79%), -139%, not significant
Carcinogen: N-NITROSOBIS(2-OXYPROPYL)AMINE, 60599-38-4, Dose [Inhibitor]: 0.05, 0.1 OR 0.2 MILLIMOLAR/KG DIET FOR 32 WK STARTING 1 WK AFTER THE CARCINOGEN DOSE (STUDY DURATION: 33 WK), Species: HAMSTER, Strain/Sex: SYRIAN/MALE, Target Tissue: Type of Lesion: GALL BLADDER: ADENOMA, Dose [Carcinogen]: 40 MG/KG ONCE
  tumour outcome (control, treated, inhibition, significance): 3/12 (25%), 17/29 (59%), -136%, not significant
Carcinogen: N-NITROSOBIS(2-OXYPROPYL)AMINE, 60599-38-4, Dose [Inhibitor]: 0.05, 0.1 OR 0.2 MILLIMOLAR/KG DIET FOR 32 WK STARTING 1 WK AFTER THE CARCINOGEN DOSE (STUDY DURATION: 33 WK), Species: HAMSTER, Strain/Sex: SYRIAN/MALE, Target Tissue: Type of Lesion: LIVER: ADENOMA, Dose [Carcinogen]: 40 MG/KG ONCE
  tumour outcome (control, treated, inhibition, significance): 6/12 (50%), 8/29 (28%), 44%, not significant
Carcinogen: N-NITROSOBIS(2-OXYPROPYL)AMINE, 60599-38-4, Dose [Inhibitor]: 0.05, 0.1 OR 0.2 MILLIMOLAR/KG DIET FOR 32 WK STARTING 1 WK AFTER THE CARCINOGEN DOSE (STUDY DURATION: 33 WK), Species: HAMSTER, Strain/Sex: SYRIAN/MALE, Target Tissue: Type of Lesion: LUNG: ADENOMA, Dose [Carcinogen]: 40 MG/KG ONCE
  tumour outcome (control, treated, inhibition, significance): 1/12 (8%), 5/29 (17%), -113%, not significant
Carcinogen: N-NITROSOBIS(2-OXYPROPYL)AMINE, 60599-38-4, Dose [Inhibitor]: 0.05, 0.1 OR 0.2 MILLIMOLAR/KG DIET FOR 32 WK STARTING 1 WK AFTER THE CARCINOGEN DOSE (STUDY DURATION: 33 WK), Species: HAMSTER, Strain/Sex: SYRIAN/MALE, Target Tissue: Type of Lesion: PANCREAS: ADENOMA, Dose [Carcinogen]: 40 MG/KG ONCE
  tumour outcome (control, treated, inhibition, significance): 12/12 (100%), 29/29 (100%), 0%, not significant
Carcinogen: N-NITROSOBIS(2-OXYPROPYL)AMINE, 60599-38-4, Dose [Inhibitor]: 0.05, 0.1 OR 0.2 MILLIMOLAR/KG DIET FOR 32 WK STARTING 1 WK AFTER THE CARCINOGEN DOSE (STUDY DURATION: 33 WK), Species: HAMSTER, Strain/Sex: SYRIAN/MALE, Target Tissue: Type of Lesion: PANCREAS: CARCINOMA, Dose [Carcinogen]: 40 MG/KG ONCE
  tumour outcome (control, treated, inhibition, significance): 6/12 (50%), 10/29 (34%), 32%, not significant
Carcinogen: N-NITROSOBIS(2-OXYPROPYL)AMINE, 60599-38-4, Dose [Inhibitor]: 0.05, 0.1 OR 0.2 MM/KG DIET FOR 32 WK STARTING 1 WK AFTER THE CARCINOGEN DOSE (STUDY DURATION: 33 WK), Species: HAMSTER, Strain/Sex: SYRIAN/FEMALE, Target Tissue: Type of Lesion: PANCREAS: ADENOCARCINOMA, Dose [Carcinogen]: 40 MG/KG, ONCE, ONE WK PRIOR TO START OF AGENT TREATMENT
  tumour outcome (control, treated, inhibition, significance): 2/10 (20%), 2/29 (7%), 65%, not significant
Carcinogen: N-NITROSOBIS(2-OXYPROPYL)AMINE, 60599-38-4, Dose [Inhibitor]: 0.05, 0.1 OR 0.2 MM/KG DIET FOR 32 WK STARTING 1 WK AFTER THE CARCINOGEN DOSE (STUDY DURATION: 33 WK), Species: HAMSTER, Strain/Sex: SYRIAN/FEMALE, Target Tissue: Type of Lesion: PANCREAS: CARCINOMA IN SITU, Dose [Carcinogen]: 40 MG/KG, ONCE, ONE WK PRIOR TO START OF AGENT TREATMENT
  tumour outcome (control, treated, inhibition, significance): 1/10 (10%), 11/29 (38%), -280%, not significant
Carcinogen: N-NITROSOBIS(2-OXYPROPYL)AMINE, 60599-38-4, Dose [Inhibitor]: 0.05, 0.1 OR 0.2 MM/KG DIET FOR 32 WK STARTING 1 WK AFTER THE CARCINOGEN DOSE (STUDY DURATION: 33 WK), Species: HAMSTER, Strain/Sex: SYRIAN/FEMALE, Target Tissue: Type of Lesion: PANCREAS: INTRADUCTAL CARCINOMA, Dose [Carcinogen]: 40 MG/KG, ONCE, ONE WK PRIOR TO START OF AGENT TREATMENT
  tumour outcome (control, treated, inhibition, significance): 2/10 (20%), 6/29 (21%), -5%, not significant
Carcinogen: N-NITROSOBIS(2-OXYPROPYL)AMINE, 60599-38-4, Dose [Inhibitor]: 0.05, 0.1 OR 0.2 MM/KG DIET FOR 32 WK STARTING 1 WK AFTER THE CARCINOGEN DOSE (STUDY DURATION: 33 WK), Species: HAMSTER, Strain/Sex: SYRIAN/MALE, Target Tissue: Type of Lesion: PANCREAS: ADENOCARCINOMA, Dose [Carcinogen]: 40 MG/KG, ONCE, ONE WK PRIOR TO START OF AGENT TREATMENT
  tumour outcome (control, treated, inhibition, significance): 1/12 (8%), 4/29 (14%), -75%, not significant
Carcinogen: N-NITROSOBIS(2-OXYPROPYL)AMINE, 60599-38-4, Dose [Inhibitor]: 0.05, 0.1 OR 0.2 MM/KG DIET FOR 32 WK STARTING 1 WK AFTER THE CARCINOGEN DOSE (STUDY DURATION: 33 WK), Species: HAMSTER, Strain/Sex: SYRIAN/MALE, Target Tissue: Type of Lesion: PANCREAS: CARCINOMA IN SITU, Dose [Carcinogen]: 40 MG/KG, ONCE, ONE WK PRIOR TO START OF AGENT TREATMENT
  tumour outcome (control, treated, inhibition, significance): 3/12 (25%), 5/29 (17%), 32%, not significant
Carcinogen: N-NITROSOBIS(2-OXYPROPYL)AMINE, 60599-38-4, Dose [Inhibitor]: 0.05, 0.1 OR 0.2 MM/KG DIET FOR 32 WK STARTING 1 WK AFTER THE CARCINOGEN DOSE (STUDY DURATION: 33 WK), Species: HAMSTER, Strain/Sex: SYRIAN/MALE, Target Tissue: Type of Lesion: PANCREAS: INTRADUCTAL CARCINOMA, Dose [Carcinogen]: 40 MG/KG, ONCE, ONE WK PRIOR TO START OF AGENT TREATMENT
  tumour outcome (control, treated, inhibition, significance): 2/12 (17%), 0/29 (0%), 100%, not significant
Carcinogen: N-NITROSOBIS(2-OXYPROPYL)AMINE, 60599-38-4, Dose [Inhibitor]: 0.05, 0.1 OR 0.2 MM/KG DIET FOR 32 WK STARTING 1 WK AFTER THE CARCINOGEN DOSE (STUDY DURATION: 33 WK), Species: HAMSTER, Strain/Sex: SYRIAN/MALE, Target Tissue: Type of Lesion: PANCREAS: MICROCARCINOMA, Dose [Carcinogen]: 40 MG/KG, ONCE, ONE WK PRIOR TO START OF AGENT TREATMENT
  tumour outcome (control, treated, inhibition, significance): 3/12 (25%), 4/29 (14%), 44%, not significant
Carcinogen: NONE USED, Dose [Inhibitor]: 687 MG/KG DIET DAILY FOR 54 WK (STUDY DURATION: 54 WK), Species: RAT, Strain/Sex: ACI/SEGHAPBR/MALE, Target Tissue: Type of Lesion: ADRENAL GLAND: TUMOR
  tumour outcome (control, treated, inhibition, significance): 15/43 (35%), 22/44 (50%), -43%, not significant
Carcinogen: NONE USED, Dose [Inhibitor]: 687 MG/KG DIET DAILY FOR 54 WK (STUDY DURATION: 54 WK), Species: RAT, Strain/Sex: ACI/SEGHAPBR/MALE, Target Tissue: Type of Lesion: PANCREAS: ISLET CELL ADENOMA
  tumour outcome (control, treated, inhibition, significance): 1/40 (3%), 8/44 (18%), -500%, p<0.05
Carcinogen: NONE USED, Dose [Inhibitor]: 687 MG/KG DIET DAILY FOR 54 WK (STUDY DURATION: 54 WK), Species: RAT, Strain/Sex: ACI/SEGHAPBR/MALE, Target Tissue: Type of Lesion: PITUITARY GLAND: ADENOMA, CARCINOMA
  tumour outcome (control, treated, inhibition, significance): 20/39 (51%), 19/41 (46%), 10%, not significant
Carcinogen: NONE USED, Dose [Inhibitor]: 687 MG/KG DIET DAILY FOR 54 WK (STUDY DURATION: 54 WK), Species: RAT, Strain/Sex: ACI/SEGHAPBR/MALE, Target Tissue: Type of Lesion: PROSTATE GLAND: ADENOMA, CARCINOMA
  tumour outcome (control, treated, inhibition, significance): 19/44 (43%), 12/43 (28%), 35%, not significant
Carcinogen: NONE USED, Dose [Inhibitor]: 687 MG/KG DIET DAILY FOR 54 WK (STUDY DURATION: 54 WK), Species: RAT, Strain/Sex: ACI/SEGHAPBR/MALE, Target Tissue: Type of Lesion: SKIN: TUMOR
  tumour outcome (control, treated, inhibition, significance): 12/45 (27%), 5/44 (11%), 59%, not significant
Carcinogen: NONE USED, Dose [Inhibitor]: 687 MG/KG DIET DAILY FOR 54 WK (STUDY DURATION: 54 WK), Species: RAT, Strain/Sex: ACI/SEGHAPBR/MALE, Target Tissue: Type of Lesion: TESTES: INTERSTITIAL CELL TUMOR
  tumour outcome (control, treated, inhibition, significance): 21/45 (47%), 27/44 (61%), -30%, not significant
